The record followed here is patent publication US6423752B1, “Indane dimer compounds with smooth muscle relaxing and/or mast cell stabilizing and/or anti-inflammatory activity” (Venantius Limited, priority 1995, dated 2002).

Assay [1] concerns mouse ear oedema. The experiment in a line: Mouse ear oedema model (arachidonic acid induced). To be noted: 300 μg per ear topically 30 min prior to 400 μg arachidonic acid; 1 hour after arachidonic acid; n=4. Type of assay: in vivo, Laca mice. As to the method: (§1) The compounds were assessed for their ability to stabilize mast cell membranes in vitro. Mast cells treated with the compounds and un-treated mast cells were stimulated to release histamine. A reduction in histamine release by the treated cells compared to the untreated cells indicates stabilisation of the membrane. The compounds were assessed for their ability to relax smooth muscle in vitro. Intestinal smooth muscle was stimulated to contract, using calcium chloride and subsequently treated with the compounds, relaxation of the contraction was measured for each compound. The effects of the compounds were also studied on relaxation of guinea-pig tracheal muscle. In the rat paw oedema test, the drugs were administered systemically prior to inducing inflammation by the injection of carageenan below the plantar aponeurosis of the hind paw. The volume of the paw was determined both before and after treatment as an index of oedema. In the mouse ear oedema test, the drugs were administered topically prior to inducing inflammation by the topical application of arachidonic acid. The width of the ear was determined both before and after treatment as an index of oedema.
The mouse ear oedema model was performed using Laca mice (25-35 g), of either sex. The animals were sedated with fentanyl/fluanisone (Hypnorm, Janssen). One ear was treated by the topical application of one of a range of test compounds, indomethacin or dexamethasone (all at 300 μg ear in acetone) drug. After 30 min, oedema was induced by the topical application of arachidonic acid (10 μl at […] in acetone). The thickness of each ear was measured, both before and 60 min after the induction of oedema, using a micrometer screw gauge. Ear oedema was calculated by comparing the ear width before and after induction of oedema and expressed as percentage normal.
Responses of the mouse ear to single doses of a range of compounds compared to the response to indomethacin and dexamethasone, each at a dose of 300 μg per ear administered topically 30 min prior to administration of 400 μg of arachidonic acid. Values are expressed as the percentage increase in ear thickness 1 hour after administration of arachidonic acid (all n=4, solvent controls (n=8)).

Assay [2] concerns mast cells. The experiment in a line: Histamine release assay (compound 48/80 stimulated mast cells). Type of assay: cell-based, Wistar rats. To be noted: 2 × 10^−5 M, rat peritoneal mast cells; for inhibition at 20 µM: Rattus norvegicus, Mast cell, read-out: Percentage Inhibition of Histamine Release. As to the method:
as §1
The buffered salt solution (BSS) was prepared in advance (NaCl 137 mM; KCl 2.7 mM; MgCl2 1.0 mM; CaCl2 0.5 mM, NaH2PO4 0.4 mM; Glucose 5.6 mM; HEPES 10 mM). This was dispensed into test tubes and heated to 37° C., each test tube contained 4.5 ml BSS. The solvent blank was supplemented with 0.5% (v/v) dimethyl sulphoxide (DMSO) or 0.5% (v/v) distilled water (dH2O). The two positive controls were supplemented with 0.5% (v/v) dH2O/2×10^−5M disodium cromoglycate (DSCG) and 0.5% (v/v) DMSO/2×10^−5M DSCG. The test compounds' incubation tubes contained 2×10^−5M test compound/0.5% (v/v) DMSO. The basal release, maximum release and total histamine content incubation tubes contained no additions.
Female Wistar rats (200-300 g) were killed in an atmosphere of saturated CO2. Pre-warmed BSS (10 ml) was injected i.p. and the abdomen was massaged for 3 min. The BSS, with suspended mast cells and other cells, was aspirated following a mid-line incision. The aspirate was centrifuged for 5 min at 400 g and the supernatant removed. The cells were re-suspended in BSS, at 4° C., and centrifuged as before the cells were washed in this manner a total of three times. Following the final wash, the pelleted cells were stored at 4° C., for use as soon as possible.
The cells were re-suspended in 7 ml BSS. From this, 0.5 ml aliquots were transferred to each of the incubation tubes. After 10 min at 37° C. with gentle agitation, Compound 48/80 was added to a final concentration of […], in order to stimulate histamine release. The cell stimulation was stopped after 2 min by the addition of 0.5 ml ice cold BSS, the incubation tubes were transferred to an ice bath. The cell suspensions were centrifuged for 5 min at 400 g. The “total histamine content” tube was placed at 100° C. for 2 min prior to centrifugation. The supernatants were retained for histamine assay.
To 2 ml of supernatant from each tube was added 0.4 ml of 1M NaOH and 0.1 ml oPT (1% (w/v) in methanol). This was incubated at room temperature for 4 min. The reaction was stopped by the addition of 0.2 ml of 3M HCl. The supernatant from each incubation tube was assayed in duplicate and run simultaneously with a standard curve in the range 0-1000 ng/ml. The presence of the fluorescent product of the reaction was measured using a Shimazu RF-1501 spectrofluorophotometer set at λex=360 nm, λem=450 nm.
Each drug was tested on at least five animals (n=5). The results were expressed as a percentage of maximum, compound 48/80 induced, histamine release in the solvent blank sample. Each drug was compared to DSCG on the same tissues. The basal histamine release in untreated cells was noted, expressed as a percentage of the total histamine content of the cells in suspension. […]

The subject of assay [3] is ileum. The experiment in a line: Smooth muscle effects: CaCl2 induced contractions of ileum. The settings on record: for inhibition at 0.03 µM / inhibition at 0.1 µM / inhibition at 0.3 µM / inhibition at 1 µM / inhibition at 3 µM / inhibition at 10 µM: Cavia porcellus, read-out: Percentage Inhibition of CaCl2 Induced Contractions. Also on record: species or system Guinea pigs. The procedure: as §1
(§2) Guinea pigs (350 g approx.), of either sex, were killed in an atmosphere of saturated CO2. The abdomen was opened by a mid-line incision and the small intestine was removed. The trachea was removed and sectioned between the cartilage rings, which were then split through.
(§3) Segments of ileum (1-1.5 cm) were suspended in a high potassium, no calcium Krebs buffer (NaCl 160.44 mM); KCl 45 mM; MgCl2 0.54 mM; NaH2PO4 0.89 mM; NaH2CO3 24.9 mM; Glucose 11.1 mM). Tracheal sections were suspended in normal Krebs buffer (NaCl […]; KCl 4.7 mM; CaCl2 2.5 mM; MgCl2 0.54 mM; NaH2PO4 0.89 mM; NaHCO3 24.9 mM; Glucose 11.1 mM). The solutions were maintained at 37° C. by a jacketed organ bath and gassed with 95% O2 and 5% CO2. The tissues were anchored by thread to the bottom of the organ bath and suspended from force displacement transducers under a resting tension of 1 g approx. in the case of ileum and 4 g approx. in the case of trachea. Isotonic contractions were recorded using a MacLab/4e system in conjunction with the Chart 3.3.1 software package. Surplus tissue was stored at 4° C. in Krebs buffer, for a maximum of 48 hours.
(§4) Four segments of tissue were suspended and observed concurrently. Contractions were initiated by the addition of 25 μl of 1M CaCl2 (a final concentration of 2.5 mM). The contractions stabilized with time, 10-15 min, and could be maintained for up to 45 min. from the addition of the CaCl2. The tracheal sections were allowed to develop spontaneous resting tension over a period of 30 mins.
Stock solutions of drug were prepared at 10^−3M in 50% (v/v) DMSO. These were diluted to give; 10^−4M in 5% (v/v) DMSO and 10^−5M in 0.5% (v/v) DMSO. In cases of poor solubility the 10^−3M stock was made up in higher concentrations of DMSO. Solvent ‘blank’ solutions were prepared containing 50%, 5% and 0.5% (v/v) DMSO (or as appropriate). […] A second cumulative dose-response assay was carried out using DMSO ‘blank’ solutions only.
(§5) Each drug was tested, in duplicate, on at least three different animals (n=3). The results were expressed as percentage inhibition of the CaCl2 induced contraction in the case of ideal tissue and percentage relaxation in the case of tracheal tissue, for each tissue, at each concentration of drug in DMSO. The effect of DMSO, for each tissue at each concentration, was subtracted from the effect of the drug in DMSO, to give the effect of the drug alone. A log dose vs. response curve was plotted for each drug using the mean and the standard error of the mean for the cumulated results.

In assay [4] the test system is trachea. As to the kind of experiment: Smooth muscle effects: spontaneous tone of tracheal sections. Details: species or system Guinea pigs. The settings on record: guinea pig trachea, percentage relaxation; for inhibition at 3 µM / inhibition at 10 µM: Cavia porcellus. The procedure: as §1, §2, §3, §4
Stock solutions of drug were prepared at 10^−3M in 50% (v/v) DMSO. These were diluted to give; 10^−4M in 5% (v/v) DMSO and 10^−5M in 0.5% (v/v) DMSO. In cases of poor solubility the 10^−3M stock was made up in higher concentrations of DMSO. Solvent ‘blank’ solutions were prepared containing 50%, 5% and 0.5% (v/v) DMSO (or as appropriate). A cumulative dose-response assay was carried out in the range 5×10^−8M to 10^−5M. A second cumulative dose-response assay was carried out using DMSO ‘blank’ solutions only.
as §5

The mark [5] stands for this setting: 3 × 10^−6 M, guinea pig ileum, DMSO effect subtracted.
Setting [6] is: 10^−5 M, guinea pig ileum, DMSO effect subtracted.

Broadly, the inhibition is the relative decrease from the control value, in per cent.

Like-named read-outs stand apart in the source and are kept apart here.

Regarding `C=CCN(C1Cc2ccccc2C1)C1CC(=O)c2ccccc21` (stereo not shown) [Compound 6C7, 3-(N-prop-2-enyl-N-2-indanylamino)-indan-1-one], the “percentage increase in ear thickness (Mean %)” value (“percentage increase … (Mean %)” for short) in assay [1] came out at 71.5%. In assay [2], the inhibition at 20 µM stood at 89.5%. In assay [3], the inhibition at 0.03 µM amounted to 1.16%, the inhibition at 0.1 µM is 3.15%, the inhibition at 0.3 µM amounted to 4.52% and the inhibition at 1 µM worked out at 5.36%. Besides, in assay [3], the inhibition at 3 µM was determined as 10.7% and the inhibition at 10 µM came to 21.8%.

As to `CC(=O)N(C1Cc2ccccc2C1)C1CC(=O)c2ccccc21` (stereo not shown) [Compound 6C11, N-2-Indanyl-N-3-indan-1-onylethanamide], in assay [1], the “percentage increase … (Mean %)” value is given as 26.0%. Besides, the inhibition at 20 µM in assay [2] came out at 4.26%. The inhibition at 3 µM in assay [3] (setting [5]) is 8%. Further, in assay [3] (setting [6]), the inhibition at 10 µM stood at 12.5%.

`C=CCN(C1CCc2ccccc21)C1CC(=O)c2ccccc21` (stereo not shown) [Compound 5C6, 3-(N-prop-2-enyl-N-1-indanylamino)-indan-1-one]: in assay [1], the “percentage increase … (Mean %)” value turned out to be 52.0%. The “Percentage Inhibition of Histamine Release” value in assay [2] is on record as 77.77%. In assay [3], the inhibition at 0.03 µM is -1%, the inhibition at 0.1 µM was 0.02%, the inhibition at 0.3 µM was 0.36% and the inhibition at 1 µM came out at 1.31%. Also, in assay [3], the inhibition at 3 µM was 8.84% and the inhibition at 10 µM was 20.9%.

As for `C=CCN(C1CCc2ccccc21)C1CC(=O)c2ccccc21` (stereo not shown) [5C6 TR], the inhibition at 20 µM in assay [2] came out at 80%. The inhibition at 3 µM in assay [4] (3 × 10^−6 M) was found to be 1.5%. In addition, in assay [4] (10^−5 M), the inhibition at 10 µM amounted to 4.97%.

For the compound `C=CCN(C1CC(=O)c2ccccc21)[C@H]1CCc2ccccc21` (stereo partly shown) [5C6 BS], the “Percentage Inhibition of Histamine Release” value in assay [2] was found to be 80.29%. For the same compound, the “Percentage Inhibition of CaCl2 Induced Contractions” value was found to be 13.66% in assay [3] (setting [5]) and 31.47% in assay [3] (setting [6]). Further, the “Percentage Inhibition of Spontaneous Tone” value in assay [4] (3 × 10^−6 M) came out at 2.03%; in assay [4] (10^−5 M) it was 4.09%.

Consider `COc1ccc2c(c1)c(CC(=O)O)c(C)n2C(=O)c1ccc(Cl)cc1` [Indomethacin, reference compound], for which the “percentage increase … (Mean %)” value in assay [1] is 39.6%.

Take `C=CCN(C1CC(=O)c2ccccc21)[C@H]1CCc2ccccc21` (stereo partly shown) [5C6 TS]: in assay [2], the inhibition at 20 µM was 75.2%. Also, the “Percentage Inhibition of CaCl2 Induced Contractions” value in assay [3] (setting [5]) came out at 5.29%. In addition, the inhibition at 10 µM was 19.4% in assay [3] (setting [6]) and 2.71% in assay [4] (10^−5 M). In assay [4] (3 × 10^−6 M), the inhibition at 3 µM worked out at 1.63%.

For `Cc1ccc(S(=O)(=O)N(C2Cc3ccccc3C2)C2CC(=O)c3ccccc32)cc1` (stereo not shown) [Compound 6C10, N-2-Indanyl-N-3-indan-1-onyl-p-toluenesulfonamide], the inhibition at 20 µM in assay [2] was determined as 51.1%. Moreover, the inhibition at 3 µM in assay [4] (3 × 10^−6 M) was -0.75%. In addition, the inhibition at 10 µM in assay [4] (10^−5 M) is 0.5%.

`CC(=O)N(C1CCc2ccccc21)C1CC(=O)c2ccccc21` (stereo not shown) [Compound 5C9, N-1-Indanyl-N-3-indan-1-onylethanamide]: in assay [2], the inhibition at 20 µM was 14.3%. For the same compound, the inhibition at 3 µM in assay [3] (setting [5]) was determined as 9.06%; in assay [4] (3 × 10^−6 M), 2.64%. In addition, the inhibition at 10 µM was 18.3% in assay [3] (setting [6]) and 2.38% in assay [4] (10^−5 M).

Take `C[C@@H]1C[C@H]2[C@@H]3CCC4=CC(=O)C=C[C@]4(C)[C@@]3(F)[C@@H](O)C[C@]2(C)[C@@]1(O)C(=O)CO` [Dexamethasone, reference compound]: in assay [1], the “percentage increase … (Mean %)” value is 37.9%.
